Measured values taken from patent US20060241084A1, “Inhibition of vascular endothelial growth factor” (THE HOSPITAL FOR SICK CHILDREN, priority 2002, published 2006).

Tests used:
[1] = CR-4 dependent inhibition of VEGF secretion from cell lines (VEGF-165 ELISA of medium); type: cell-based; conditions: Homo sapiens; all cell lines; 10^6 cells/ml incubated 5 hrs with compound, washed, fresh medium 24 hrs; FIGS. 1 to 4
Protocol: VEGF secretion from the breast cancer cell lines HTB-133 (KDR+), HTB-131 (KDR−) and MDA-231, HTB-181 prostate cancer cell line, HTB-72 melanoma cell line, CR2-1730 human umbilical vascular endothelial (HUV-EC-C) cell line and normal HUVEC primary cells was measured as follows.
Medium was collected and analysed for the presence of VEGF using VEGF-165 ELISA kit (R&D Systems).
CR-4 dependent inhibition of VEGF secretion from breast, prostate, melanoma and HUVEC cell lines.
10^6 cells/ml of each cell lines were incubated for 5 hrs. with various concentrations of CR-4. Cells were washed twice in PBS to remove CR4 and fresh medium was added for 24 hrs. Medium was collected and analysed for the presence of VEGF using VEGF-165 ELISA kit (R&D Systems).

HUVEC = test: Inhibition of HUVEC growth by CR-4 induced VEGF depleted media of breast cancer cell lines ([3H]-Thymidine incorporation); type: cell-based, human; conditions: FIG. 5
Protocol: CR-4 dependent inhibition of VEGF secretion results in the inhibition of HUVEC growth.
After an incubation for 5 hrs. with various concentrations of CR-4 the wells were washed twice and fresh HUVEC medium was added for 24 hrs. This medium with or without 10 ng/ml of recombinant VEGF was then transferred to parallel wells containing 10^5 cells/ml of HUVEC that were plated and grown in HUVEC medium for 24 hrs. Radioactive labelled [^3H]-Thymidine was added to HUVEC wells over night. Cells were harvested and their [^3H]-Thymidine incorporation was measured.

[2] = system: VEGF secretion from HTB-133 and MDA-231 cells; test: CR11 and CR19 dependent inhibition of VEGF secretion from breast cancer cell lines (VEGF-165 ELISA of medium); type: cell-based; conditions: Homo sapiens, MDA-MB-231, 10^6 cells/ml incubated 5 hours with compound, washed, fresh medium 24 hours, FIGS. 6 and 7
Protocol: CR11 and CR19 dependent inhibition of VEGF secretion from breast cancer cell lines.
Procedure: 10^6 cells/ml of each of HTB-133 and MDA-231 cells were incubated for 5 hours with various concentrations of CR11 or CR19. Cells were washed twice in PBS to remove CR11 and CR19 and fresh medium was added for 24 hours. Medium was collected and analysed for the presence of VEGF using VEGF-165 ELISA kit (R&D Systems).

IC50 [1] [nM]	IC50 [2] [nM]	Compound	Effect of recombinant VEGF on the inhibition of HUVEC growth (HUVEC; 10 ng/ml recombinant VEGF added to the conditioned medium)	IC50 (HUVEC; Homo sapiens, medium of HTB-133 (KDR+) and HTB-131 (KDR-) cells treated 5 hrs with compound, transferred to HUVEC, [3H]-Thymidine incorporation) [nM]
10 to 30	–	N#C/C(=C\C=C\c1ccc(O)c(O)c1)C(=O)NCc1ccccc1 [CR4, (E,E)-2-(Benzylaminocarbonyl)-3-(3,4-dihydroxystyryl)acrylonitrile]	rescued by recombinant VEGF	20 to 30
–	~30	COc1cc(/C=C/C=C(\C#N)C(=O)NCc2ccc(O)c(O)c2)cc(OC)c1O [CR11, (E,E)-2-(3,4-Dihydroxybenzylaminocarbonyl)-3-(3,5-dimethoxy-4-hydroxystyryl)acrylonitrile]	–	–
–	~30	N#C/C(=C\C=C\c1ccccc1)C(=O)NCc1ccc(O)c(O)c1 [CR19, (E,E)-2-(3,4 Dihydroxybenzylaminocarbonyl)-3-styrylacrylonitrile]	–	–
